# Measurements as given in patent publication US20260365662A1, “ISOANDROGRAPHOLIDE ANALOGS AND METHOD FOR TREATMENT USING THE SAME” (Enveda Therapeutics, Inc., priority 2023, published 2026).
# Tests used:
# female BALB/c mouse [1] = assay: MC-903 induced atopic dermatitis model, therapeutic mode, low doses (Example 16); format: in vivo; conditions: p.o. twice a day; for dermatitis severity scores: 0.01 to 10 mg/kg, vs MC-903 vehicle control
# Procedure: Experimental details: Preclinical animal model of atopic dermatitis was developed by MC-903, a vitamin-D analogue. In the current study, the test item Compound 2 was screened in therapeutic mode, to evaluate its efficacy in MC-903 induced AD model. 2 nmol of MC-903 was topically applied to 8-10 weeks old female BALB/c mouse from G2-G8 group at a volume of 50 μl/mouse on back skin on every alternate day for 14 days to induced disease. For the G1 group, (Normal+ethanol control) the same volume of ethanol that was used to solubilize MC-903 was applied. Clobetasol (0.05%, 15 mg/mouse) was applied topically once a day to G3 group animals. Compound 2 was administered per oral twice a day at 0.01, 0.1, 1, 3 & 10 mg/kg to respective treatment groups (G4-G8) for 14 days. On the day of MC-903 administration, test compounds were dosed one hour prior to MC-903 insult. Clinical scores to assess the disease intensity were measured from visual examination for erythema, scaling and back skin thickness using dial caliper. All the scores were carried by blinded observers to treatment groups. Disease severity was assessed by dermatitis severity scores.
# female BALB/c mouse [2] = assay: MC-903 induced atopic dermatitis model, therapeutic mode (Example 14); format: in vivo; conditions: twice a day, vs MC-903 vehicle control
# Procedure: Experimental details: Preclinical animal model of atopic dermatitis was developed by MC-903, a vitamin-D analogue. In the current study, the test item Compound 2 was screened in therapeutic mode, to evaluate its efficacy in MC-903 induced AD model. 2 nmol of MC-903 was topically applied to 8-10 weeks old female BALB/c mouse from G2-G8 group at a volume of 50 μl/mouse on back skin on every alternate day for 14 days to induced disease. For the G1 group, (Normal+ethanol control) the same volume of ethanol that was used to solubilize MC-903 was applied. Clobetasol (0.05%, 15 mg/mouse) was applied topically once a day to G3 group animals and Ruxolitinib (1.5%, 20 mg/mouse) was applied topically twice a day to G4 group animals. Compound 2 was administered twice a day to respective treatment groups (G4-G8) for 14 days. On the day of MC-903 administration, test compounds were dosed one hour prior to MC-903 insult. Clinical scores to assess the disease intensity were measured from visual examination for erythema, scaling and back skin thickness using dial caliper. All the scores were carried by blinded observers to treatment groups. Disease severity was assessed by dermatitis erythema & dermatitis scaling.
structure (smiles),measurement,setting,value
"C[C@@]12CCC(=O)N[C@@](C)(CO)[C@H]1CC[C@@]1(C)O[C@H](C3=CCOC3=O)C[C@@H]21 [Compound 2, (2S,3aR,5aS,6R,10aR,10bS)-6-(hydroxymethyl)-3a,6,10a-trimethyl-2-(2-oxo-2,5-dihydrofuran-3-yl) dodecahydro-8H-benzofuro[5,4-c]azepin-8-one]",minimal effective dose,"female BALB/c mouse [1]; Mus musculus, po, 336 h, doses 0.01, 0.1, 1, 3, 10 mg/kg, read-out: lowest active dose (dermatitis severity scores)",0.1 mg/kg
same,dermatitis severity scores,female BALB/c mouse [1],significant dose dependent decrease
same,dermatitis severity scores,female BALB/c mouse [1]; listed as compound 2,significantly reduces
same,dermatitis erythema scores,female BALB/c mouse [2],dose dependent decrease
same,dermatitis scaling scores,female BALB/c mouse [2],dose dependent decrease
same,dermatitis erythema scores,female BALB/c mouse [2]; listed as compound 2,significantly reduces
same,dermatitis scaling scores,female BALB/c mouse [2]; listed as compound 2,significantly reduces
